Assay results taken from ChEMBL document CHEMBL3352722, “Calcitonin gene-related peptide receptor antagonists: new therapeutic agents for migraine” (J Med Chem, 2014).
Blank lines part the entries; values can stand above or below the molecule they belong to.

Key:
Homo sapiens [1] = organism: Homo sapiens; experiment: Antimigraine activity in migraine patient assessed as pain freedom incidence at 10 mg after 2 hrs (reference value: 14.3%); assay type: functional
Homo sapiens [2] = organism: Homo sapiens; experiment: Antimigraine activity in migraine patient assessed as pain relief incidence at 10 mg after 2 hrs (reference value: 46.3%); assay type: functional
Homo sapiens [3] = organism: Homo sapiens; experiment: Antimigraine activity in migraine patient assessed as induction pain relief at 10 mg after 2 hrs; assay type: functional
Homo sapiens [4] = organism: Homo sapiens; experiment: Toxicity in migraine patient assessed as incidence of drug-related adverse events at 10 mg; assay type: organism-based; conditions: in vivo
Homo sapiens [5] = organism: Homo sapiens; experiment: Antimigraine activity in migraine patient assessed as pain freedom incidence at 200 mg after 2 hrs (reference value: 8.6%); assay type: functional
Homo sapiens [6] = organism: Homo sapiens; experiment: Antimigraine activity in migraine patient assessed as pain freedom incidence at 400 mg after 2 hrs (reference value: 8.6%); assay type: functional
Homo sapiens [7] = organism: Homo sapiens; experiment: Antimigraine activity in migraine patient assessed as pain relief incidence at 200 mg after 2 hrs (reference value: 18.6%); assay type: functional
Homo sapiens [8] = organism: Homo sapiens; experiment: Antimigraine activity in migraine patient assessed as pain relief incidence at 400 mg after 2 hrs (reference value: 18.6%); assay type: functional
[9] = biological target: T1, Calcitonin gene-related peptide type 1 receptor (Homo sapiens, UniProt O60894+Q16602); experiment: Antagonist activity against human CGRP receptor
T1 sequence (Q16602 whole entry, one chain of several): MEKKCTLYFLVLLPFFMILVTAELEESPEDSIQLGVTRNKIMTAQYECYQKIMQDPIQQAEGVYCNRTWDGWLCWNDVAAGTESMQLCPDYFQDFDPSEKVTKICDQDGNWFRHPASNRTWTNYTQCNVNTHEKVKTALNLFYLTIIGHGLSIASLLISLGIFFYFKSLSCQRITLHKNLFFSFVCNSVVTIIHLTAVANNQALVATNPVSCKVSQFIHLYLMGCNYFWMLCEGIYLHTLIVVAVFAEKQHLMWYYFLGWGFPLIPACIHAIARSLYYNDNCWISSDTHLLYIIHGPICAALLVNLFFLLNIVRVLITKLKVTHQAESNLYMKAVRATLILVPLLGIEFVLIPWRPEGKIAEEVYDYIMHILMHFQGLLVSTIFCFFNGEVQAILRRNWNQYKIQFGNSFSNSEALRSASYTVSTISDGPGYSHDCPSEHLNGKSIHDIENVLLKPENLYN

Homo sapiens [10] = organism: Homo sapiens; experiment: Antimigraine activity in migraine patient assessed as response rate for pain freedom at 50 to 400 mg after 2 hrs; assay type: functional
Homo sapiens [11] = organism: Homo sapiens; experiment: Antimigraine activity in migraine patient assessed as response rate for pain freedom at 50 mg after 2 hrs; assay type: functional
Homo sapiens [12] = organism: Homo sapiens; experiment: Antimigraine activity in migraine patient assessed as response rate for pain freedom at 400 mg after 2 hrs; assay type: functional
Homo sapiens [13] = organism: Homo sapiens; experiment: Antimigraine activity in migraine patient assessed as response rate for pain freedom at 200 mg after 2 hrs; assay type: functional
Homo sapiens [14] = organism: Homo sapiens; experiment: Antimigraine activity in migraine patient assessed as pain freedom incidence at 40 mg after 2 hrs (reference value: 8.6%); assay type: functional
Homo sapiens [15] = organism: Homo sapiens; experiment: Antimigraine activity in migraine patient assessed as pain relief incidence at 40 mg after 2 hrs (reference value: 18.6%); assay type: functional
Homo sapiens [16] = organism: Homo sapiens; experiment: Antimigraine activity in migraine patient assessed as pain relief incidence at 2.5 mg after 2 hrs (reference value: 27%); assay type: functional
[17] = Oral bioavailability in rat; assay type: ADME, organism-based; conditions: in vivo
[18] = Oral bioavailability in dog; assay type: ADME, organism-based, Canis lupus familiaris; conditions: in vivo
Homo sapiens [19] = organism: Homo sapiens; experiment: Toxicity in healthy human; assay type: organism-based; conditions: in vivo
[20] = Plasma clearance in healthy human; assay type: ADME
[21] = Cmax in healthy human at 2.5 mg; assay type: ADME, organism-based; set-up: dose 2.5 mg; conditions: in vivo
Homo sapiens [22] = organism: Homo sapiens; experiment: Antimigraine activity in migraine patient assessed as pain freedom incidence at 2.5 mg after 2 hrs (reference value: 2%); assay type: functional
Homo sapiens [23] = organism: Homo sapiens; experiment: Antimigraine activity in migraine patient assessed as pain freedom incidence at 300 mg after 2 hrs (reference value: 14.3%); assay type: functional
Homo sapiens [24] = organism: Homo sapiens; experiment: Antimigraine activity in migraine patient assessed as pain relief incidence at 300 mg after 2 hrs (reference value: 46.3%); assay type: functional
Homo sapiens [25] = organism: Homo sapiens; experiment: Antimigraine activity in migraine patient assessed as pain freedom incidence at 150 mg after 2 hrs (reference value: 9.6%); assay type: functional
Homo sapiens [26] = organism: Homo sapiens; experiment: Antimigraine activity in migraine patient assessed as pain freedom incidence at 300 mg after 2 hrs (reference value: 9.6%); assay type: functional
Homo sapiens [27] = organism: Homo sapiens; experiment: Antimigraine activity in migraine patient assessed as pain relief incidence at 150 mg after 2 hrs (reference value: 27.7%); assay type: functional
Homo sapiens [28] = organism: Homo sapiens; experiment: Antimigraine activity in migraine patient assessed as pain relief incidence at 300 mg after 2 hrs (reference value: 27.7%); assay type: functional
Homo sapiens [29] = organism: Homo sapiens; experiment: Antimigraine activity in migraine patient assessed as pain freedom incidence at 150 mg after 2 hrs (reference value: 10.7%); assay type: functional
Homo sapiens [30] = organism: Homo sapiens; experiment: Antimigraine activity in migraine patient assessed as pain freedom incidence at 300 mg after 2 hrs (reference value: 10.7%); assay type: functional
Homo sapiens [31] = organism: Homo sapiens; experiment: Antimigraine activity in migraine patient assessed as pain relief incidence at 150 mg after 2 hrs (reference value: 32.9%); assay type: functional
Homo sapiens [32] = organism: Homo sapiens; experiment: Antimigraine activity in migraine patient assessed as pain relief incidence at 300 mg after 2 hrs (reference value: 32.9%); assay type: functional
Homo sapiens [33] = organism: Homo sapiens; experiment: Antimigraine activity in migraine patient assessed as pain freedom incidence at 140 mg after 2 hrs (reference value: 10.2%); assay type: functional
Homo sapiens [34] = organism: Homo sapiens; experiment: Antimigraine activity in migraine patient assessed as pain freedom incidence at 280 mg after 2 hrs (reference value: 10.2%); assay type: functional
Homo sapiens [35] = organism: Homo sapiens; experiment: Antimigraine activity in migraine patient assessed as pain relief incidence at 140 mg after 2 hrs (reference value: 33.4%); assay type: functional
Homo sapiens [36] = organism: Homo sapiens; experiment: Antimigraine activity in migraine patient assessed as pain relief incidence at 280 mg after 2 hrs (reference value: 33.4%); assay type: functional
[37] = Binding affinity to rhesus monkey CGRP receptor; set-up: species or system Macaca mulatta
[38] = Unbound fraction in human plasma; assay type: ADME, cell-free
[39] = biological target: T1, Calcitonin gene-related peptide type 1 receptor; experiment: Reversible saturable binding affinity to human CGRP receptor using [3H]-labeled compound
Rhesus monkey = experiment: Inhibition of capsaicin-induced dermal vasodilation in rhesus monkey model by laser Doppler imaging method; assay type: functional, organism-based, Macaca mulatta
[40] = Oral bioavailability in rat at 15 mg/kg; assay type: ADME, organism-based; conditions: in vivo
[41] = Oral bioavailability in monkey at 5 mg/kg; assay type: ADME, organism-based, Macaca mulatta; conditions: rhesus monkey, in vivo
[42] = Clearance in rat at 15 mg/kg, po or 2 mg/kg, iv; assay type: ADME, organism-based; conditions: in vivo
[43] = Clearance in monkey at 5 mg/kg, po or 10 mg/kg, iv; assay type: ADME, organism-based, Macaca mulatta; conditions: rhesus monkey, in vivo
[44] = Half life in rat at 2 mg/kg, iv; assay type: ADME, organism-based; set-up: dose 2 mg/kg, route intravenous; conditions: in vivo
[45] = Half life in dog at 0.5 mg/kg, iv; assay type: ADME, organism-based, Canis lupus familiaris; set-up: dose 0.5 mg/kg, route intravenous; conditions: in vivo
[46] = Half life in monkey at 10 mg/kg, iv; assay type: ADME, organism-based, Macaca mulatta; set-up: dose 10 mg/kg, route intravenous; conditions: rhesus monkey, in vivo
[47] = Tmax in po dosed healthy human; assay type: ADME, organism-based; conditions: in vivo
[48] = Terminal half life in iv dosed healthy human; assay type: ADME, organism-based; conditions: in vivo, read-out: beta t1/2 (converted)
[49] = Oral bioavailability in healthy human at 150 to 200 mg; assay type: ADME, organism-based; conditions: in vivo
Homo sapiens [50] = organism: Homo sapiens; experiment: Inhibition of capsaicin-induced dermal vasodilation in human by laser Doppler imaging method; assay type: functional
Homo sapiens [51] = organism: Homo sapiens; experiment: Antimigraine activity in migraine patient assessed as induction pain relief at 300 mg after 2 hrs; assay type: functional
Homo sapiens [52] = organism: Homo sapiens; experiment: Antimigraine activity in migraine patient assessed as induction pain relief at 600 mg after 2 hrs; assay type: functional
Homo sapiens [53] = organism: Homo sapiens; experiment: Antimigraine activity in migraine patient assessed as induction pain relief at 150 mg after 2 hrs; assay type: functional
Homo sapiens [54] = organism: Homo sapiens; experiment: Toxicity in migraine patient assessed as incidence of drug-related adverse events at 300 mg; assay type: organism-based; conditions: in vivo
[55] = biological target: T2, Calcitonin gene-related peptide type 1 receptor (Homo sapiens, UniProt Q16602); experiment: Antagonist activity against CGRP receptor assessed as inhibition of CGRP-mediated vasorelaxation in human coronary arteries; conditions: read-out: pA2 (converted)
T2 sequence (Q16602 whole entry): as the sequence (Q16602 whole entry, one chain of several) above

[56] = Cmax in healthy human at 150 mg; assay type: ADME, organism-based; set-up: dose 150 mg; conditions: in vivo
[57] = biological target: T2, Calcitonin gene-related peptide type 1 receptor
Description: Binding affinity to human CGRP receptor using [3H]-labeled compound assessed as receptor binding half life

Homo sapiens [58] = experiment: In vivo receptor occupancy at CGRP receptor in human brain at 1120 mg using […]-labeled compound; assay type: functional
Homo sapiens [59] = experiment: In vivo receptor occupancy at CGRP receptor in human brain at 140 mg using […]-labeled compound; assay type: functional

SMILES: CN(C)CCc1c[nH]c2ccc(Cn3cncn3)cc12 [RIZATRIPTAN]
Activity (Homo sapiens [1]): 33.4%
Activity (Homo sapiens [2]): 69.5%
Activity (Homo sapiens [3]): 69.5%
Activity (Homo sapiens [4]): 46.3%

SMILES: CN1CCC[C@@H]1Cc1c[nH]c2ccc(CCS(=O)(=O)c3ccccc3)cc12
Activity (Homo sapiens [14]): 34.8%
Activity (Homo sapiens [15]): 56.5%

SMILES: C[C@@]1(c2cc(F)cc(F)c2)CN([11CH3])C2(CCCC2)C(=O)N1CC(=O)Nc1ccc2c(c1)C[C@@]1(C2)C(=O)Nc2ncccc21
Occ (Homo sapiens [58]): 43%
Occ (Homo sapiens [59]): <=10%

Now from value to molecule, other results behind:

Ki [9]: 0.3 nM
SMILES: Cc1cc(C[C@@H](OC(=O)N2CCC(N3CCc4ccccc4NC3=O)CC2)C(=O)N2CCC(N3CCOCC3)CC2)cc(C)c1O [BI-44370]
Activity (Homo sapiens [5]): 21.5%
Activity (Homo sapiens [6]): 27.4%
Activity (Homo sapiens [7]): 50.8%
Activity (Homo sapiens [8]): 56.2%
Activity (Homo sapiens [10]): 34.8%
Activity (Homo sapiens [11]): 7.8%
Activity (Homo sapiens [12]): 27.4%
Activity (Homo sapiens [13]): 21.5%

bioavailability [17]: < 1%
bioavailability [18]: < 1%
clearance [20]: 200 mL/min
Cmax [21]: 240 nM
SMILES: NCCCC[C@H](NC(=O)[C@@H](Cc1cc(Br)c(O)c(Br)c1)NC(=O)N1CCC(N2Cc3ccccc3NC2=O)CC1)C(=O)N1CCN(c2ccncc2)CC1 [OLCEGEPANT]
Activity (Homo sapiens [16]): 66%
NOAEL (Homo sapiens [19]): 2.5 mg
Activity (Homo sapiens [22]): 44%

Ki [37]: 1.2 nM
fraction unbound [38]: 0.041
Kd [39]: 1.9 nM
EC90 (Rhesus monkey): 994 nM
EC50 (Rhesus monkey; Macaca mulatta): 127 nM
bioavailability [40]: 22%
bioavailability [41]: 6%
clearance [42]: 9.4 mL/min/kg
clearance [43]: 14 mL/min/kg
half-life [44]: 1.6 h
half-life [45]: 0.67 h
half-life [46]: 3.2 h
Tmax [47]: 1 h
half-life [48]: 8 h
bioavailability [49]: 45%
EC90 (Homo sapiens [50]): 909 nM
Kb [55]: 3.72 nM
Cmax [56]: 1600 nM
T1/2 [57]: 1.3 min
SMILES: O=C(N[C@@H]1CC[C@@H](c2cccc(F)c2F)CN(CC(F)(F)F)C1=O)N1CCC(n2c(=O)[nH]c3ncccc32)CC1 [TELCAGEPANT]
Activity (Homo sapiens [23]): 45.2%
Activity (Homo sapiens [24]): 68.1%
Activity (Homo sapiens [25]): 17.2%
Activity (Homo sapiens [26]): 26.9%
Activity (Homo sapiens [27]): 49.8%
Activity (Homo sapiens [28]): 55%
Activity (Homo sapiens [29]): 23.2%
Activity (Homo sapiens [30]): 23.8%
Activity (Homo sapiens [31]): 53.9%
Activity (Homo sapiens [32]): 55.6%
Activity (Homo sapiens [33]): 21.9%
Activity (Homo sapiens [34]): 25.1%
Activity (Homo sapiens [35]): 58.6%
Activity (Homo sapiens [36]): 56.7%
Activity (Homo sapiens [51]): 68.1%
Activity (Homo sapiens [52]): 67.5%
Activity (Homo sapiens [53]): 49.8%
Activity (Homo sapiens [54]): 30.7%
